In brackets after ≈: the same amount, converted by molar mass. Read-outs that look alike come from different tables or passages of the source.
Assays:
Escherichia coli W677 = type: cell-based; details: nutrient agar, 37° C., 18 hours
[1] = system: Escherichia coli K-12 C 600R135; experiment: microbe, parasite or virus in culture; type: cell-based; details: K12C600R135, 18 h
[2] = system: Escherichia coli K-12 R 388; type: cell-based; details: K12R388, 18 h
[3] = system: Escherichia coli K-12 J5R 11-2; type: cell-based; details: K12J5R112, nutrient agar, 37° C., 18 hours
[4] = system: Pseudomonas maltophilia GN907; type: cell-based; details: Stenotrophomonas maltophilia, nutrient agar, 37° C., 18 hours
[5] = system: Escherichia coli K-12 ML 1630; type: cell-based; details: K12ML1630, nutrient agar, 37° C., 18 hours
[6] = system: Escherichia coli K-12 ML 1410; type: cell-based; details: K12ML1410, nutrient agar, 37° C., 18 hours
Proteus rettgeri GN466 = type: cell-based; details: Providencia rettgeri, nutrient agar, 37° C., 18 hours
[7] = system: Escherichia coli K-12 LA 290 R56; experiment: microbe, parasite or virus in culture; type: cell-based; details: K12LA290R56, 18 h
[8] = system: Pseudomonas aeruginosa GN315; type: cell-based; details: nutrient agar, 37° C., 18 hours
[9] = system: Escherichia coli K-12 ML 1410 R81; experiment: microbe, parasite or virus in culture; type: cell-based; details: 18 h
[10] = system: Pseudomonas aeruginosa H9; type: cell-based
Providencia 2991 = type: cell-based; details: nutrient agar, 37° C., 18 hours
[11] = system: Staphylococcus epidermidis 109; type: cell-based; details: nutrient agar, 37° C., 18 hours
Escherichia coli NIHJ = type: cell-based; details: nutrient agar, 37° C., 18 hours
[12] = system: Escherichia coli K-12 LA 290 R55; experiment: microbe, parasite or virus in culture; type: cell-based; details: K12LA290R55, 18 h
Bacillus anthracis = experiment: microbe, parasite or virus in culture; type: cell-based; details: 18 h
[13] = system: Klebsiella pneumoniae 22 #3038; type: cell-based; details: nutrient agar, 37° C., 18 hours
Escherichia coli K-12 R5 = type: cell-based; details: K12R5, 18 h
[14] = system: Corynebacterium bovis 1810; experiment: microbe, parasite or virus in culture; details: Corynebacterium bovis, 1810, 18 h
Procedure: (§1) Thus, the minimum inhibitory concentrations (mcg/ml) of the hexadeoxykanamycin and of the hexadeoxyamikacin according to this invention against various microorganisms were determined according to serial dilution method on a nutrient agar medium at 37° C., the estimation being made after 18 hours incubation. For comparison purpose, the minimum inhibitory concentrations of amikacin were also determined in the same manner as stated above.

Serratia marcescens = experiment: microbe, parasite or virus in culture; details: 18 h
Procedure: as §1

[15] = system: Staphylococcus aureus Smith; type: cell-based; details: nutrient agar, 37° C., 18 hours
Escherichia coli K-12 = type: cell-based; details: K12, nutrient agar, 37° C., 18 hours
[16] = system: Bacillus subtilis NRRL B-558; type: cell-based; details: NRRLB558, nutrient agar, 37° C., 18 hours
Proteus rettgeri GN311 = type: cell-based; details: Providencia rettgeri, nutrient agar, 37° C., 18 hours
[17] = system: Staphylococcus aureus Ap01; type: cell-based; details: nutrient agar, 37° C., 18 hours
[18] = system: Pseudomonas aeruginosa H11; type: cell-based; details: nutrient agar, 37° C., 18 hours
[19] = system: Pseudomonas aeruginosa No. 12; type: cell-based; details: nutrient agar, 37° C., 18 hours
[20] = system: Klebsiella pneumoniae PCI 602; type: cell-based; details: PCI602, nutrient agar, 37° C., 18 hours
[21] = system: Escherichia coli JR66/W677; type: cell-based; details: JR66/W677, 18 h
Escherichia coli JR255 = experiment: microbe, parasite or virus in culture; type: cell-based; details: JR255, 18 h
Providencia Pv 16 = type: cell-based; details: PV16, nutrient agar, 37° C., 18 hours
[22] = system: Pseudomonas aeruginosa B-13; type: cell-based
Serratia 4 = type: cell-based; details: nutrient agar, 37° C., 18 hours
[23] = system: Pseudomonas aeruginosa A3; type: cell-based
[24] = system: Escherichia coli K-12 LA 290 R64; experiment: microbe, parasite or virus in culture; type: cell-based; details: K12LA290R64, 18 h
[25] = system: Mycobacterium smegmatis ATCC 607; type: cell-based; details: Mycolicibacterium smegmatis, ATCC607; nutrient agar, 37° C., 18 hours
[26] = system: Staphylococcus aureus FDA 209P; type: cell-based; details: FDA209P, nutrient agar, 37° C., 18 hours
[27] = system: Pseudomonas aeruginosa K-Ps102; type: cell-based
[28] = system: Pseudomonas aeruginosa PST1; type: cell-based; details: nutrient agar, 37° C., 18 hours
[29] = system: Pseudomonas aeruginosa TI-13; type: cell-based; details: TI13, nutrient agar, 37° C., 18 hours
[30] = system: Salmonella enteritidis 1891; type: cell-based; details: Salmonella enterica, nutrient agar, 37° C., 18 hours

## C[C@@H]1C[C@H](N)[C@@H](O)[C@@H](O[C@@H]2C[C@H](O[C@@H]3CCC[C@@H](CN)O3)[C@@H](N)C[C@H]2N)O1 [Hexadeoxykanamycin, 5,2',3',4',4",6"-hexadeoxykanamycin]
Escherichia coli W677
  MIC: 1.56 µg/mL (≈ 4.02 µM)
[1]
  MIC: 1.56 µg/mL (≈ 4.02 µM)
[2]
  MIC: 1.56 µg/mL (≈ 4.02 µM)
[3]
  MIC: 25 µg/mL (≈ 64.3 µM)
[4]
  MIC: > 100 µg/mL
[5]
  MIC: 25 µg/mL (≈ 64.3 µM)
[6]
  MIC: 3.13 µg/mL (≈ 8.06 µM)
Proteus rettgeri GN466
  MIC: 1.56 µg/mL (≈ 4.02 µM)
[7]
  MIC: 12.5 µg/mL (≈ 32.2 µM)
[8]
  MIC: > 100 µg/mL
[9]
  MIC: 25 µg/mL (≈ 64.3 µM)
[10]; H9, 18 h
  MIC: 100 µg/mL (≈ 257 µM)
Providencia 2991
  MIC: 50 µg/mL (≈ 129 µM)
[11]
  MIC: 3.13 µg/mL (≈ 8.06 µM)
Escherichia coli NIHJ
  MIC: 3.13 µg/mL (≈ 8.06 µM)
[12]
  MIC: 100 µg/mL (≈ 257 µM)
Bacillus anthracis
  MIC: 1.56 µg/mL (≈ 4.02 µM)
[13]
  MIC: > 100 µg/mL
Escherichia coli K-12 R5
  MIC: > 100 µg/mL
[14]
  MIC: 6.25 µg/mL (≈ 16.1 µM)
Serratia marcescens
  MIC: 6.25 µg/mL (≈ 16.1 µM)
[15]
  MIC: 0.78 µg/mL (≈ 2.01 µM)
Escherichia coli K-12
  MIC: 1.56 µg/mL (≈ 4.02 µM)
[16]
  MIC: 0.78 µg/mL (≈ 2.01 µM)
Proteus rettgeri GN311
  MIC: 0.78 µg/mL (≈ 2.01 µM)
[17]
  MIC: 3.13 µg/mL (≈ 8.06 µM)
[18]
  MIC: > 100 µg/mL
[19]
  MIC: 50 µg/mL (≈ 129 µM)
[20]
  MIC: 1.56 µg/mL (≈ 4.02 µM)
[21]
  MIC: > 100 µg/mL
Escherichia coli JR255
  MIC: 1.56 µg/mL (≈ 4.02 µM)
Providencia Pv 16
  MIC: 12.5 µg/mL (≈ 32.2 µM)
[22]; B13, 18 h
  MIC: > 100 µg/mL
Serratia 4
  MIC: 25 µg/mL (≈ 64.3 µM)
[23]; A3, 18 h
  MIC: 3.13 µg/mL (≈ 8.06 µM)
[24]
  MIC: 25 µg/mL (≈ 64.3 µM)
[25]
  MIC: 0.78 µg/mL (≈ 2.01 µM)
[26]
  MIC: 1.56 µg/mL (≈ 4.02 µM)
[27]; KPS102, 18 h
  MIC: > 100 µg/mL
[28]
  MIC: > 100 µg/mL
[29]
  MIC: 50 µg/mL (≈ 129 µM)
[30]
  MIC: 1.56 µg/mL (≈ 4.02 µM)

## NCC[C@H](O)C(=O)N[C@@H]1C[C@H](N)[C@@H](O[C@H]2O[C@H](CN)[C@@H](O)[C@H](O)[C@H]2O)[C@H](O)[C@H]1O[C@H]1O[C@H](CO)[C@@H](O)[C@H](N)[C@H]1O [Amikacin, 1-N-[(S)-4-amino-2-hydroxybutyryl]kanamycin A, reference compound]
Escherichia coli W677
  MIC: 0.78 µg/mL (≈ 1.33 µM)
[1]
  MIC: 0.78 µg/mL (≈ 1.33 µM)
[2]
  MIC: 0.39 µg/mL (≈ 0.666 µM)
[3]
  MIC: 1.56 µg/mL (≈ 2.66 µM)
[4]
  MIC: > 100 µg/mL
[5]
  MIC: 3.13 µg/mL (≈ 5.34 µM)
[6]
  MIC: 1.56 µg/mL (≈ 2.66 µM)
Proteus rettgeri GN466
  MIC: 0.78 µg/mL (≈ 1.33 µM)
[7]
  MIC: 0.78 µg/mL (≈ 1.33 µM)
[8]
  MIC: 25 µg/mL (≈ 42.7 µM)
[9]
  MIC: 1.56 µg/mL (≈ 2.66 µM)
[10]; H9, nutrient agar, 37° C., 18 hours, read-out: MIC
  MIC: 6.25 µg/mL (≈ 10.7 µM)
Providencia 2991
  MIC: 1.56 µg/mL (≈ 2.66 µM)
[11]
  MIC: 3.13 µg/mL (≈ 5.34 µM)
Escherichia coli NIHJ
  MIC: 1.56 µg/mL (≈ 2.66 µM)
[12]
  MIC: 1.56 µg/mL (≈ 2.66 µM)
Bacillus anthracis
  MIC: 0.78 µg/mL (≈ 1.33 µM)
[13]
  MIC: 3.13 µg/mL (≈ 5.34 µM)
Escherichia coli K-12 R5
  MIC: 100 µg/mL (≈ 171 µM)
[14]
  MIC: 1.56 µg/mL (≈ 2.66 µM)
Serratia marcescens
  MIC: 1.56 µg/mL (≈ 2.66 µM)
[15]
  MIC: 0.39 µg/mL (≈ 0.666 µM)
Escherichia coli K-12
  MIC: 0.39 µg/mL (≈ 0.666 µM)
[16]
  MIC: 0.39 µg/mL (≈ 0.666 µM)
Proteus rettgeri GN311
  MIC: 0.39 µg/mL (≈ 0.666 µM)
[17]
  MIC: 1.56 µg/mL (≈ 2.66 µM)
[18]
  MIC: 12.5 µg/mL (≈ 21.3 µM)
[19]
  MIC: 3.13 µg/mL (≈ 5.34 µM)
[20]
  MIC: 0.78 µg/mL (≈ 1.33 µM)
[21]
  MIC: 3.13 µg/mL (≈ 5.34 µM)
Escherichia coli JR255
  MIC: 0.78 µg/mL (≈ 1.33 µM)
Providencia Pv 16
  MIC: 1.56 µg/mL (≈ 2.66 µM)
[22]; B13, nutrient agar, 37° C., 18 hours, read-out: MIC
  MIC: 6.25 µg/mL (≈ 10.7 µM)
Serratia 4
  MIC: 3.13 µg/mL (≈ 5.34 µM)
[23]; A3, nutrient agar, 37° C., 18 hours, read-out: MIC
  MIC: < 0.2 µg/mL
[24]
  MIC: 1.56 µg/mL (≈ 2.66 µM)
[25]
  MIC: 0.78 µg/mL (≈ 1.33 µM)
[26]
  MIC: 0.78 µg/mL (≈ 1.33 µM)
[27]; KPS102, nutrient agar, 37° C., 18 hours, read-out: MIC
  MIC: 6.25 µg/mL (≈ 10.7 µM)
[28]
  MIC: 12.5 µg/mL (≈ 21.3 µM)
[29]
  MIC: 3.13 µg/mL (≈ 5.34 µM)
[30]
  MIC: 1.56 µg/mL (≈ 2.66 µM)

From US4486419A, “5,2',3',4',4",6"-Hexadeoxykanamycin and its 1-N-acylated derivative” (Zaidan Hojin Biseibutsu Kagaku Kenkyu Kai, priority 1982, dated 1984)
